One experiment deals with T1, renin (Homo sapiens, UniProt P00797).
T1 sequence (P00797 67-406): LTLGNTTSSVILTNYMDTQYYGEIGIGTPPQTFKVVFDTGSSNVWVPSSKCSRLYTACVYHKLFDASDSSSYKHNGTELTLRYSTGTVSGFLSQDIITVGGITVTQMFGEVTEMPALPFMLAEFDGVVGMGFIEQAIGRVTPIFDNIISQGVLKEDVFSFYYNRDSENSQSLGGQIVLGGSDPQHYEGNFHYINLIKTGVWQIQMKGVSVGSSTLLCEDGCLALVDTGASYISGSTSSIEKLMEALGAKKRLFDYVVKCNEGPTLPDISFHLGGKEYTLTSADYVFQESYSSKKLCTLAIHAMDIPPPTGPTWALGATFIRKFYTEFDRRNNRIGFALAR
Description: in vitro renin inhibitory activity, radioimmunoassay for angiotensin I. It is filed as biochemical. Particulars: renin incubated two hours at 37° with substrate angiotensinogen; angiotensin I by radioimmunoassay; molar concentration causing 50% inhibition. Here is the method: The effectiveness of the aforementioned compound is determined by a test for in vitro renin inhibitory activity. This activity is determined by a standard radioimmunoassay for angiotensin I. In this assay the enzyme, renin, incubated for two hours at 37° in the presence of a substrate, angiotensinogen, generates the product, angiotensin I. Test compounds are added to the incubation mixture. Relative activity is reported as the IC50, which is the molar concentration of test compound causing a 50% inhibition of the renin activity.
As a reminder, the IC50 is the concentration at which inhibition is half-maximal. A high value points to a need for much substance. “DNMA--HIS--CYCLOHEXYLALA[CHOHCH2 ](CH2)2 CH(CH3)2 [Example 5]” displayed an IC50 of 1.8 µM. Consider “DNMA--HIS--CYCLOHEXYLALA[CHOHCH2 ]GLY--LEU--NHCH2 Ph [Example 11]”, for which the midpoint of inhibition, the IC50, lay at 6.4 µM. Substance “DNMA--HIS--CYCLOHEXYLALA[CHOHCH2 ]GLY--NHCH2 CH(CH3)--CH2 CH3 [Example 16]” registered a half-inhibitory concentration (IC50) of 0.25 µM. Consider “DNMA--HIS--CYCLOHEXYLALA[CHOHCH2 ]GLY--NHCH2 Ph [Example 17]”, for which the IC50 came out at 3.4 µM.

Substance “DNMA--HIS--CYCLOHEXYLALA[CHOHCH2 ]LEU--NHCH2 CH(CH3)--CH2 CH3 [Example 15]” displayed a half-maximal inhibitory concentration (IC50) of 0.17 µM. The substance “DNMA--HIS--CYCLOHEXYLALA[CHOHCH2 ]LEU--NHCH2 Ph [Example 14]” gave an IC50 of 4.4 µM. In turn, “DNMA--HIS--CYCLOHEXYLALA[CHOHCHOH]CH2 OH [Example 7]” had an IC50 of 0.28 µM. “DNMA--HIS--LEU[CHOHCH2 ]SO2 NHCH2 CH2 Ph [Example 1]”: the IC50 was determined as 12 µM.

Turning to “DNMA--HIS--STA[CH2 NH]CH2 CH(CH3)CH2 CH3 [Example 10]”, the IC50 turned out to be 8.7 µM.

Consider “DNMA--HIS--STA[CH2 SO2 ](CH2)3 CH3 [Example 4]”, for which the IC50 came out at 0.16 µM. The substance “DNMA--HIS--STA[CHOHCH2 ]CH2 Ph [Example 18]” yielded an IC50 of 12 µM. In the case of “DNMA--HIS[CH2 NH]STA--NHCH2 CH(CH3)CH2 CH3 [Example 8]”, the 50% inhibitory concentration (IC50) was 16 µM. Still for that read-out and setting: to “DNMA[CHOHCH2 ]LEU--STA--NHCH2 CH(CH3)CH2 CH3 [Example 20]” belongs 1.9 µM.

Staying with this experiment, now noted: renin incubated two hours at 37° with substrate angiotensinogen; angiotensin I by radioimmunoassay; molar concentration causing 50% inhibition; listed as DNMAHIS STA[CHOHCH2 ]CH2 Ph (ISOMER).
Turning to “DNMA--HIS--STA[CHOHCH2 ]CH2 Ph [Example 19]”, the IC50 worked out at 1.4 µM.
